The values below come from patent publication US8415344B2, “Method of treating depression” (Brookhaven Science Associates, LLC, priority 2009, dated 2013).

For test [1] the following is noted: Rothstein et al.; Lipski et al.; cited from earlier work.
For test [2], the system named is astrocyte glutamate transporters. Conditions: Sun et al.; cited from earlier work.
The subject of test [3] is rats exhibiting learned helplessness (cLH rat line). Briefly: Learned helplessness testing (lever-press escape paradigm) of cLH rats pre- and post-treatment. Format: in vivo. Conditions: oral diazoxide dissolved in NaOH, 10, 30 or 60 mg per day, three days.
Experimental: At the age of 9 weeks, male rats are tested for learned helplessness. Testing consists of an escape paradigm, were 0.8 mA, 60 sec foot-shocks can be interrupted with a lever press. A trial not terminated within 20 seconds is considered a failure, and 10 or more failed trials out of 15 trials are treated as “helpless” phenotype. cNLH animals are exposed to a total of 20 unpredictable, unescapable foot-shocks (0.8 mA, 60 sec) 24 hours prior to testing. Five rats from the cLH rat line described in Example I are provided with orally administered diazoxide dissolved in NaOH over a period of three days. Two animals received 60 mg per day two received 30 mg, and one received 10 mg. Three rats in the control group received no treatment.

With `CO/N=C(\C(=O)N[C@@H]1C(=O)N2C(C(=O)O)=C(CSc3nc(=O)c(=O)[nH]n3C)CS[C@H]12)c1csc(N)n1` [Ceftriaxone], the “effectiveness in studies of neuroprotection” value in test [1] was “particularly effective”.

As for `CC1=NS(=O)(=O)c2cc(Cl)ccc2N1` [diazoxide], the “stimulating the uptake of glutamate by astrocyte glutamate transporters” value (from here on “stimulating the uptake of glutamate”) in test [2] is “shown to be effective”. Also, in test [3], the “number of lever presses post-treatment relative to pre-treatment” value is listed as “substantial increase in the number of lever presses”.

For the molecule `CC(C)NC(C)(C)C(C)C` [iptakalim], the “stimulating the uptake of glutamate” value in test [2] was “shown to be effective”.

Regarding `CC(N/C(=N\C#N)Nc1ccncc1)C(C)(C)C` (centres unmarked) [pinacidil], in test [2], the “stimulating the uptake of glutamate” value is “shown to be effective”.
